The values below come from patent US11472793B2, “Inhibitors of cysteine proteases and methods of use thereof” (priority 2020, dated 2022).

One assay deals with 229E mPRO (Human coronavirus 229E (HCoV-229E), UniProt P0C6X1). Nature of the assay: 229E mPRO enzymatic assay. The assay is classed as biochemical, Human Coronavirus (HCov) 229E.
The next assay concerns HCoV 229E. The experiment in a line: HCoV 229E cytopathic effect (CPE) assay. The conditions noted are these: read-out: 229E CPE EC50 (μM). The assay is classed as cell-based, Human Coronavirus (HCov) 229E. A general note: Cytopathic effects are the visible damage that an infection or toxin causes in cultured cells.

Read-outs that look alike come from different tables or passages of the source. Some results are limits rather than exact numbers.

229E mPRO, sequence (P0C6X1 2966-3267 limits assumed): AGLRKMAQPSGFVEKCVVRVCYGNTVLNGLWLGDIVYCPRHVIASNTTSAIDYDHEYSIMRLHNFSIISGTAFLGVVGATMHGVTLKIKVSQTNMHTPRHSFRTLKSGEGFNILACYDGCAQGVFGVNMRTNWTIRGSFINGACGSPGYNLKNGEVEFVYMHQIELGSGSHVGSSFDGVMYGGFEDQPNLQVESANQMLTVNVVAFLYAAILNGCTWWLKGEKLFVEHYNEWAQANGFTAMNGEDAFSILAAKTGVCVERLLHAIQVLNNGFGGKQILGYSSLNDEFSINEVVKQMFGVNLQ
Procedure for 229E mPRO: Compounds were assayed using standard methods to assess compound activity and IC50. […] The assay buffer contained 20 mM of Tris-HCl (pH 7.3), 100 mM of NaCl, 1 mM of EDTA, 5 mM of TCEP and 0.1% BSA.
The compounds were added to an assay plate.
IC50 values of compounds were calculated with the GraphPad Prism software using the nonlinear regression model of log(inhibitor) vs. response—Variable slope (four parameters). The inhibition activity was calculated using the formula below, IC50 values was calculated using the Inhibition % data. Inhibition %=[(Sample−Average ZPE)/(Average HPE−Average ZPE)]*100%
^#HEP: Hundred percent effect controls. Containing substrate+enzyme+1 μM GC376.
Containing enzyme+substrate, no compound.
Sample: Compound activity testing wells. Containing compound+enzyme+substrate.
BG: Compound background control wells. Containing compound+substrate, no enzyme.
Procedure for HCoV 229E: The antiviral activity of compounds was calculated based on the protection of the virus-induced CPE at each concentration normalized by the virus control.
Reagents and instruments used in this assay include luminescent cell viability assay kit CellTiter Glo (Promega) and Microplate Reader Synergy2 (BioTek).
Cytopathic effect (CPE) was measured by CellTiter Glo following the manufacturer's manual. The antiviral activity of compounds was calculated based on the protection of the virus-induced CPE at each concentration normalized by the virus control.

In general, IC50 refers to the concentration that gives 50% inhibition. For the compound `COc1cccc2[nH]c(C(=O)N3C[C@@H]4CC[C@@H]4[C@H]3C(=O)N[C@H](C#N)C[C@@H]3CCNC3=O)cc12` (single isomer, unassigned) [547 (Isomer 2)], the IC50 on 229E mPRO (read-out: 229E mPRO IC50) is less than 2000 nM. On the same count and under the same terms, under `N#C[C@H](C[C@@H]1CCCNC1=O)NC(=O)C1CC2(CCC2)CN1C(=O)c1cc2cccc(Cl)c2[nH]1` (single isomer, unassigned) [729 (Isomer 1)] stands less than 2000 nM.

By EC50 is commonly meant the midpoint of the concentration-response curve. `N#C[C@H](C[C@@H]1CCCNC1=O)NC(=O)C1CC2(CCC2)CN1C(=O)c1cc2cccc(Cl)c2[nH]1` (single isomer, unassigned) [731 (Isomer 1)] registered an IC50 against 229E mPRO of less than 2000 nM. In addition, the EC50 in the assay with HCoV 229E is less than 2 µM.

Take `N#C[C@H](C[C@@H]1CCCNC1=O)NC(=O)C1CC2(CN1C(=O)c1cc3cccc(Cl)c3[nH]1)CC(F)(F)C2` (single isomer, unassigned) [743 (Isomer 2)]: the IC50 against 229E mPRO is less than 2000 nM. Besides, in the assay with HCoV 229E, the EC50 was less than 2 µM.
